Measurements published in patent US9924721B2 (priority 2013, dated 2018).
Marks after values point to notes of the source that are not given here.

What was measured:
Phytophthora infestans = test: microbe, parasite or virus in culture; assay type: cell-based; conditions: 8 days incubation
Pythium ultimum = Pythium ultimum in vitro cell test; assay type: cell-based; conditions: 4 days incubation
Method: Pythium ultimum In Vitro Cell Test
• Solvent: DMSO • Culture medium: 14.6 g anhydrous D-glucose (VWR), 7.1 g Mycological Peptone (Oxoid), 1.4 g granulated Yeast Extract (Merck), QSP liter • Inoculum: mycelial suspension
Fungicides were solubilized in DMSO and the solution used to prepare the required range of concentrations. The final concentration of DMSO used in the assay was ≤1%.
Inoculum was prepared from a pre-culture of P. ultimum grown in liquid medium by homogenization using a blender. The concentration of ground mycelium in the inoculum was estimated and adjusted to the desired optical density (OD).
Fungicides were evaluated for their ability to inhibit mycelium growth in liquid culture assay. The compounds were added in the desired concentrations to culture medium containing the mycelial suspension. After 4 days of incubation, the fungicidal efficacy of compounds was determined by spectrometric measurement of mycelium growth. Inhibition of fungal growth was determined by comparing the absorbance values in wells containing the fungicides with the absorbance in control wells without fungicides.

[1] = pH 2.7
[2] = 0.25 μg/mL of active ingredient

| Structure (SMILES) | Eff. % (inhibition of fungal growth) (Phytophthora infestans; [2]) | Eff. % (inhibition of fungal growth) (Pythium ultimum; 20 μg/mL of active ingredient) | Log P [1] | Eff. % (inhibition of fungal growth) (Phytophthora infestans; 20 μg/mL of active ingredient) | Eff. % (inhibition of fungal growth) (Pythium ultimum; of active ingredient) |
| --- | --- | --- | --- | --- | --- |
| C#CCOc1cccc(F)c1C1CC(c2csc(C3CCN(C(=O)C(C(=O)OCC)n4nc(C(F)F)cc4C(F)F)CC3)n2)=NO1 (stereo not drawn) [Example I-04] | 100% | 92% | 3.57^[a] |  |  |
| CCOC(=O)C(C(=O)N1CCC(c2nc(C3=NOC(c4ccccc4OS(C)(=O)=O)C3)cs2)CC1)n1nc(C(F)(F)F)nc1C (stereo not drawn) [Example I-06] |  | 94% | 3.14^[a] | 100% |  |
| C#CCOc1cccc(F)c1C1CC(c2csc(C3CCN(C(=O)C(C(=O)OC(C)C)n4nc(C(F)F)cc4C(F)F)CC3)n2)=NO1 (stereo not drawn) [Example I-07] | 100% |  | 3.81^[a] |  | 97% |
| C#CCOc1ccccc1C1CC(c2csc(C3CCN(C(=O)C(C(=O)OC(C)C)n4nc(C(F)F)cc4C(F)F)CC3)n2)=NO1 (stereo not drawn) [Example I-09] |  | 97% | 3.93^[a] | 98% |  |
| CCCCCC(CC)OC(=O)C(C(=O)N1CCC(c2nc(C3=NOC(c4ccccc4OS(C)(=O)=O)C3)cs2)CC1)n1nc(C(F)F)cc1C(F)F (stereo not drawn) [Example I-10] |  |  | 4.96^[a] | 97% |  |
| CCOC(=O)C(C(=O)N1CCC(c2nc(C3=NOC(c4ccccc4OS(C)(=O)=O)C3)cs2)CC1)n1nc(C(F)F)cc1C(F)F (stereo not drawn) [Example I-11] |  | 97% | 3.28^[a] | 100% |  |
| CC(C)OC(=O)C(C(=O)N1CCC(c2nc(C3=NOC(c4ccccc4C=O)C3)cs2)CC1)n1nc(C(F)F)cc1C(F)F (stereo not drawn) [Example I-13] | 94% |  | 3.70^[a] |  |  |
| CC(C)OC(=O)C(C(=O)N1CCC(c2nc(C3=NOC(c4c(F)cccc4OS(C)(=O)=O)C3)cs2)CC1)n1nc(C(F)F)cc1C(F)F (stereo not drawn) [Example I-17] | 100% |  | 3.49^[a] |  | 99% |
| CCOC(=O)C(C(=O)N1CCC(c2nc(C3=NOC(c4ccccc4OS(C)(=O)=O)C3)cs2)CC1)n1nc(C(F)(F)F)cc1C (stereo not drawn) [Example I-19] |  |  | 3.42^[a] | 100% |  |
| CCOC(=O)C(C(=O)N1CCC(c2nc(C3=NOC(c4ccccc4OS(C)(=O)=O)C3)cs2)CC1)n1nc(C)nc1C (stereo not drawn) [Example I-20] |  | 87% | 2.24^[a] | 100% |  |
| CC(C)OC(=O)C(Br)C(=O)N1CCC(c2nc(C3=NOC(c4c(F)cccc4OS(C)(=O)=O)C3)cs2)CC1 (stereo not drawn) [Example I-23] | 100% |  | 2.97^[a] |  |  |
| CCOC(=O)C(Br)C(=O)N1CCC(c2nc(C3=NOC(c4ccccc4C=O)C3)cs2)CC1 (stereo not drawn) [Example I-25] |  |  | 2.82^[a] | 100% |  |
| C#CCOc1cccc(F)c1C1CC(c2csc(C3CCN(C(=O)C(Br)C(=O)OCC)CC3)n2)=NO1 (stereo not drawn) [Example I-26] |  | 100% | 2.98^[a] | 100% |  |
| CCOC(=O)C(Br)C(=O)N1CCC(c2nc(C3=NOC(c4c(F)cccc4OS(C)(=O)=O)C3)cs2)CC1 (stereo not drawn) [Example I-27] |  | 100% | 2.72^[a] | 100% |  |
| CCCCCC(CC)OC(=O)C(Br)C(=O)N1CCC(c2nc(C3=NOC(c4ccccc4C=O)C3)cs2)CC1 (stereo not drawn) [Example I-28] |  |  | 4.83^[a] | 100% |  |
| CCOC(=O)C(Br)C(=O)N1CCC(c2nc(C3=NOC(c4ccccc4OS(C)(=O)=O)C3)cs2)CC1 (stereo not drawn) [Example I-33] |  | 99% | 2.72^[a] | 100% |  |
| CCOC(=O)C(Br)C(=O)N1CCC(c2nc(C3=NOC(c4c(Cl)cccc4OS(C)(=O)=O)C3)cs2)CC1 (stereo not drawn) [Example I-34] |  | 94% | 2.92^[a] | 100% |  |
| C#CCOc1cccc(F)c1C1CC(c2csc(C3CCN(C(=O)CC(=O)OC(CC)CCCCC)CC3)n2)=NO1 (stereo not drawn) [Example I-40] |  | 93% | 4.42^[a] | 100% |  |
| CCCCCC(CC)OC(=O)CC(=O)N1CCC(c2nc(C3=NOC(c4ccccc4OS(C)(=O)=O)C3)cs2)CC1 (stereo not drawn) [Example I-45] |  |  | 4.07^[a] | 100% |  |
| COCCOC(=O)CC(=O)N1CCC(c2nc(C3=NOC(c4ccccc4OS(C)(=O)=O)C3)cs2)CC1 (stereo not drawn) [Example I-46] |  | 97% | 2.11^[a] | 100% |  |
| CC(C)OC(=O)CC(=O)N1CCC(c2nc(C3=NOC(c4c(F)cccc4OS(C)(=O)=O)C3)cs2)CC1 (stereo not drawn) [Example I-47] |  | 93% | 2.53^[a] | 100% |  |
| CCOC(=O)CC(=O)N1CCC(c2nc(C3=NOC(c4c(Cl)cccc4OS(C)(=O)=O)C3)cs2)CC1 (stereo not drawn) [Example I-49] |  | 88% | 2.53^[a] | 100% |  |

| Structure (SMILES) | Eff. % (inhibition of fungal growth) (Phytophthora infestans; [2]) | Eff. % (inhibition of fungal growth) (Pythium ultimum; 20 μg/mL of active ingredient) | Log P [1] | Eff. % (inhibition of fungal growth) (Phytophthora infestans; 20 μg/mL of active ingredient) | Eff. % (inhibition of fungal growth) (Pythium ultimum; of active ingredient) |
| --- | --- | --- | --- | --- | --- |
| CCOC(=O)CC(=O)N1CCC(c2nc(C3=NOC(c4ccccc4OS(C)(=O)=O)C3)cs2)CC1 (stereo not drawn) [Example I-50] |  | 94% | 2.30^[a] | 98% |  |
| C#CCOc1ccccc1C1CC(c2csc(C3CCN(C(=O)CC(=O)OC(C)C)CC3)n2)=NO1 (stereo not drawn) [Example I-52] |  | 86% | 2.94^[a] | 87% |  |
| CCOC(=O)CC(=O)N1CCC(c2nc(C3=NOC(c4ccccc4C=O)C3)cs2)CC1 (stereo not drawn) [Example I-53] |  |  | 2.34^[a] | 100% |  |
| CCCCCC(CC)OC(=O)CC(=O)N1CCC(c2nc(C3=NOC(c4ccccc4C=O)C3)cs2)CC1 (stereo not drawn) [Example I-55] |  | 70% | 4.27^[a] | 100% |  |
| CC(C)OC(=O)CC(=O)N1CCC(c2nc(C3=NOC(c4ccccc4C=O)C3)cs2)CC1 (stereo not drawn) [Example I-56] |  | 84% | 2.57^[a] | 100% |  |
| CC(C)OC(=O)CC(=O)N1CCC(c2nc(C3=NOC(c4ccccc4OS(C)(=O)=O)C3)cs2)CC1 (stereo not drawn) [Example I-58] |  |  | 2.56^[a] | 100% |  |
| C#CCOc1cccc(Cl)c1C1CC(c2csc(C3CCN(C(=O)C(C(=O)OCc4ccccc4)n4nc(C(F)F)cc4C(F)F)CC3)n2)=NO1 (stereo not drawn) [Example I-59] | 100% |  | 4.28^[a] |  |  |
| CS(=O)(=O)Oc1cccc(Cl)c1C1CC(c2csc(C3CCN(C(=O)C(C(=O)OCc4ccccc4)n4nc(C(F)F)cc4C(F)F)CC3)n2)=NO1 (stereo not drawn) [Example I-61] | 100% |  | 3.98^[a] |  |  |
| C#CCOc1ccccc1C1CC(c2csc(C3CCN(C(=O)C(C(=O)OCc4ccccc4)n4nc(C(F)F)cc4C(F)F)CC3)n2)=NO1 (stereo not drawn) [Example I-62] | 100% |  | 4.16^[a] |  |  |
| C#CCOc1cccc(Cl)c1C1CC(c2csc(C3CCN(C(=O)C(C(=O)OC(C)(C)C)n4nc(C(F)F)cc4C(F)F)CC3)n2)=NO1 (stereo not drawn) [Example I-63] | 100% |  | 4.31^[a] |  | 90% |
| CC(C)(C)OC(=O)C(C(=O)N1CCC(c2nc(C3=NOC(c4c(Cl)cccc4OS(C)(=O)=O)C3)cs2)CC1)n1nc(C(F)F)cc1C(F)F (stereo not drawn) [Example I-64] | 100% |  | 4.00^[a] |  |  |
| C#CCOc1ccccc1C1CC(c2csc(C3CCN(C(=O)C(C(=O)OC(C)(C)C)n4nc(C(F)F)cc4C(F)F)CC3)n2)=NO1 (stereo not drawn) [Example I-65] | 100% |  | 4.16^[a] |  | 91% |
| CC(C)(C)OC(=O)C(C(=O)N1CCC(c2nc(C3=NOC(c4ccccc4OS(C)(=O)=O)C3)cs2)CC1)n1nc(C(F)F)cc1C(F)F (stereo not drawn) [Example I-66] | 100% |  | 3.74^[a] |  |  |
| C#CCOc1cccc(Cl)c1C1CC(c2csc(C3CCN(C(=O)C(Br)C(=O)OC(C)(C)C)CC3)n2)=NO1 (stereo not drawn) [Example I-71] | 100% |  | 3.84^[a] |  |  |
| CS(=O)(=O)Oc1cccc(Cl)c1C1CC(c2csc(C3CCN(C(=O)CC(=O)OCc4ccccc4)CC3)n2)=NO1 (stereo not drawn) [Example I-76] |  |  | 3.12^[a] |  |  |
| C#CCOc1ccccc1C1CC(c2csc(C3CCN(C(=O)CC(=O)OCc4ccccc4)CC3)n2)=NO1 (stereo not drawn) [Example I-77] |  |  | 3.30^[a] |  |  |
| C#CCOc1cccc(Cl)c1C1CC(c2csc(C3CCN(C(=O)CC(=O)OCc4ccccc4)CC3)n2)=NO1 (stereo not drawn) [Example I-78] | 88% |  | 3.45^[a] |  |  |
| CC(C)(C)OC(=O)CC(=O)N1CCC(c2nc(C3=NOC(c4c(Cl)cccc4OS(C)(=O)=O)C3)cs2)CC1 (stereo not drawn) [Example I-79] |  |  | 3.04^[a] |  |  |
| C#CCOc1cccc(Cl)c1C1CC(c2csc(C3CCN(C(=O)CC(=O)OC(C)(C)C)CC3)n2)=NO1 (stereo not drawn) [Example I-80] | 100% |  | 3.36^[a] |  |  |
| CC(C)(C)OC(=O)CC(=O)N1CCC(c2nc(C3=NOC(c4ccccc4OS(C)(=O)=O)C3)cs2)CC1 (stereo not drawn) [Example I-81] |  |  | 2.80^[a] |  |  |
| C#CCOc1ccccc1C1CC(c2csc(C3CCN(C(=O)CC(=O)OC(C)(C)C)CC3)n2)=NO1 (stereo not drawn) [Example I-82] |  |  | 3.22^[a] |  |  |
